According to patent US20140336182A1, “Aurora Kinase Modulators and Method of Use” (Amgen Inc., priority 2013, published 2014):

The molecules below were run on HeLa cells (assay: HeLa cell 24 hr ploidy assay (DNA content)). Settings: Homo sapiens, HeLa, 4N ploidy, average, read-out: 24h_4NPloidy EC50_IP (uM Avg).
Assay type: cell-based
Outline: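 DNA content measured by Hoechst 33342 nuclear staining (0.5 ug/ml, 45 min RT) and high-content imaging of fixed HeLa cells after 24 h compound exposure in 0.25% DMSO. Fractions of 4N and >4N cells fitted to dose curves giving EC50 IP, EC50 transit, Max and Min.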

COc1cnc2c(Oc3ccc(Nc4ncc(-c5ccccc5)c5ccccc45)cc3)ccnc2c1 [compound 144] and COc1cnc2c(Oc3ccc(Nc4nnc(-c5cccc(C)n5)c5ccccc45)cc3)ccnc2c1 [compound 111] are within 1.5-fold of each other in EC50: 0.155 µM for the first, 0.109 µM for the second.

Going from COc1cnc2c(Oc3ccc(Nc4nnc(-c5cc(C)cs5)c5ccccc45)cc3)ccnc2c1 [compound 152] to COc1cnc2c(Oc3ccc(Nc4nnc(-c5ccc(Cl)s5)c5ccccc45)cc3)ccnc2c1 [compound 140, 4-(5-chloro-2-thienyl)-N-(4-((7-(methyloxy)-1,5-naphthyridin-4-yl)oxy)phenyl)-1-phthalazinamine], the EC50 rises from 0.009 µM to 0.022 µM (2.4-fold).

First: COc1cnc2c(Oc3ccc(Nc4nnc(-c5cccc(OC)n5)c5ccccc45)cc3)ccnc2c1 [compound 99]
Second: COc1cnc2c(Oc3ccc(Nc4nnc(-c5cccc(CO)n5)c5ccccc45)cc3)ccnc2c1 [compound 114]
The EC50 of the first is 17-fold lower: 0.023 µM for the first, 0.39 µM for the second. The first is the more potent here.

COc1cnc2c(Nc3ccc(Nc4nnc(-c5ccccc5)c5ccccc45)cc3)ccnc2c1 [Example 40, N′-(7-methoxy-1,5-naphthyridin-4-yl)-N4-(4-phenylphthalazin-1-yl)benzene-1,4-diamine] and COc1cnc2c(Oc3ccc(Nc4nnc(-c5ccccc5)c5ccccc45)cc3F)ccnc2c1 [compound 89, N-(3-fluoro-4-((7-(methyloxy)-1,5-naphthyridin-4-yl)oxy)phenyl)-4-phenyl-1-phthalazinamine] are within 1.5-fold of each other in EC50: 0.07 µM for the first, 0.052 µM for the second.

Going from COc1cc2nccc(Oc3ccc(Nc4nnc(N5CCCCC5)c5ccccc45)cc3)c2cc1OC [compound 75] to COc1cnc2c(Oc3ccc(Nc4nnc(N5CCCCC5)c5ccccc45)cc3)ccnc2c1 [compound 151], the EC50 rises from 0.025 µM to 0.128 µM (5.1-fold). The first is the more potent here.

Compared with COc1ccc2c(Oc3ccc(Nc4nnc(-c5cc(C)ccn5)c5ccccc45)cc3)ccnc2c1 [compound 118], COc1cnc2c(Oc3ccc(Nc4nnc(-c5ccncc5OC)c5ccccc45)cc3)ccnc2c1 [compound 130] is higher in EC50: 0.11 µM for the first, over 1.2 µM for the second.

Same assay, conditions: Homo sapiens, HeLa, HeLa cells, 4N ploidy, average, read-out: 24h_4NPloidy EC50_IP (uM Avg)

Going from Cc1csc(-c2nnc(Nc3ccc(Sc4ccnc5ccc(=O)[nH]c45)cc3)c3ccccc23)c1 [compound 589] to COc1cc2nccc(Sc3ccc(Nc4nnc(-c5ccc(Cl)cc5)c5ccccc45)cc3)c2[nH]c1=O [Example 406, 8-(4-(4-(4-Chlorophenyl)phthalazin-1-ylamino)phenylthio)-3-methoxy-1,5-naphthyridin-2(1H)-one], the EC50 falls from 0.007 µM to under 0.0023 µM. The second is the more potent here.

Oc1cc(-c2nnc(Nc3ccc(Sc4ccnc5cccnc45)cc3)c3ccccc23)ccc1Cl [compound 452] and COc1cnc2c(Sc3ccc(Nc4nnc(-c5ccc(C)c(O)c5)c5ccccc45)cc3)ccnc2c1 [compound 451] cannot be ordered by EC50: under 0.0023 µM for the first, under 0.0023 µM for the second.

First: COc1cc(OC)c2c(Sc3ccc(Nc4nnc(-c5ccccc5)c5ccccc45)cc3)ncnc2c1 [compound 581]
Second: COc1cc(OC)c2c(Oc3ccc(Nc4nnc(-c5ccccc5)c5ccccc45)cn3)ncnc2c1 [compound 606]
The EC50 of the first is 8.1-fold lower: 0.036 µM for the first, 0.292 µM for the second.

First: COc1cnc2c(Sc3ccc(Nc4nnc(-c5ccc(Cl)cn5)c5ccccc45)cc3)ccnc2c1 [compound 304, 4-(5-chloro-2-pyridinyl)-N-(4-((7-(methyloxy)-1,5-naphthyridin-4-yl)thio)phenyl)-1-phthalazinamine]
Second: COc1cnc2c(Sc3ccc(Nc4nnc(Cl)c5ccccc45)cc3)ccnc2c1 [compound 536]
The EC50 of the first is 3.9-fold lower: 0.008 µM for the first, 0.031 µM for the second.

COc1cnc2c(Sc3ccc(Nc4nnc(N5CCN6CC(F)(F)C[C@H]6C5)c5ccccc45)cc3)ccnc2c1 [compound 601] and COc1cnc2c(Sc3ccc(Nc4nnc(N5CCN6CCC[C@@H]6C5)c5ccccc45)cc3)ccnc2c1 [compound 582] are within 1.5-fold of each other in EC50: 0.005 µM for the first, 0.006 µM for the second.

Compared with Cc1ccc(-c2nnc(Nc3ccc(Sc4ccnc5ccncc45)cc3)c3ccccc23)nc1 [compound 433], Cc1ccc(-c2nnc(Nc3ccc(Oc4ccnc5ccncc45)cc3)c3ccccc23)nc1 [compound 432] is 6.4-fold higher in EC50: 0.017 µM for the first, 0.109 µM for the second. The first is the more potent here.

Compared with Cc1ccc(-c2nnc(Nc3ccc(Oc4ccnc5cc(-c6cncn6C)sc45)cc3)c3ccccc23)cc1 [compound 203], COc1cnc2c(Oc3ccc(Nc4nnc(-c5ccc6c(ccn6C)c5)c5ccccc45)cc3)ccnc2c1 [compound 204, 4-(1-methyl-1H-indol-5-yl)-N-(4-((7-(methyloxy)-1,5-naphthyridin-4-yl)oxy)phenyl)-1-phthalazinamine] is 10-fold higher in EC50: 0.002 µM for the first, 0.021 µM for the second.

Going from COc1cnc2c(Oc3ccc(Nc4nnc(-c5ccc(Cl)cc5OC)c5ccccc45)cc3)ccnc2c1 [compound 253] to COc1cnc2c(Oc3ccc(Nc4nnc(-c5ccc(F)c(F)c5)c5ccccc45)cc3)ccnc2c1 [compound 214], the EC50 falls from 0.835 µM to 0.033 µM (25-fold). The second is the more potent here.

First: COc1cnc2c(Sc3ccc(Nc4nnc(C5=CCNCC5)c5ccccc45)cc3)ccnc2c1 [Example 401, N-(4-(7-Methoxy-1,5-naphthyridin-4-ylthio)phenyl)-4-(1,2,3,6-tetrahydropyridin-4-yl)phthalazin-1-amine]
Second: COc1cnc2c(Sc3ccc(Nc4nnc(C5CC5)c5ccccc45)cc3)ccnc2c1 [compound 541]
The EC50 of the first is 4.9-fold higher: 0.187 µM for the first, 0.038 µM for the second. The second is the more potent here.

Compared with c1ccc2c(-c3ccc4c(c3)OCO4)nnc(Nc3ccc(Oc4ccnc5ccsc45)cc3)c2c1 [compound 279], Cc1csc(-c2nnc(Nc3ccc(Oc4ccnc5ccsc45)cc3)c3ccccc23)c1 [compound 289] is 6.6-fold higher in EC50: 0.011 µM for the first, 0.073 µM for the second.

Compared with CN(c1ccc(Oc2ccnc3ccc(=O)[nH]c23)cc1)c1nnc(-c2ccc(Cl)cc2)c2ccccc12 [compound 500], O=c1ccc2nccc(Oc3ccc(Nc4nnc(-c5ccc(Cl)cc5)c5ccccc45)cc3)c2[nH]1 [compound 569] is lower in EC50: over 1.2 µM for the first, 0.115 µM for the second. The second is the more potent here.

First: COc1cnc2c(Oc3ccc(Nc4nnc(-c5cc(C)cc(C)c5)c5ccccc45)cc3)ccnc2c1 [compound 188]
Second: COc1cnc2c(Oc3ccc(Nc4nnc(-c5ccc(C)c(F)c5)c5ccccc45)cc3)ccnc2c1 [compound 243]
The EC50 of the first is 8.5-fold higher: 0.051 µM for the first, 0.006 µM for the second.

Compared with COc1cc2c(Oc3ccc(Nc4nnc(-c5ccccc5)c5ccccc45)cc3)ccnc2cc1O [compound 422], COc1cnc2c(Oc3ccc(Nc4nnc(-c5ccc(C)c(O)c5)c5ccccc45)cc3)ccnc2c1 [compound 449] is lower in EC50: 0.01 µM for the first, under 0.0023 µM for the second.

First: Cc1cc2nccc(Sc3ccc(Nc4nnc(-c5ccc(Cl)cc5)c5ccccc45)cc3)c2o1 [compound 491]
Second: Clc1ccc(-c2nnc(Nc3ccc(Sc4ccnc5[nH]ccc45)cc3)c3ccccc23)cc1 [compound 330]
The EC50 of the first is 2.3-fold higher: 0.037 µM for the first, 0.016 µM for the second. The second is the more potent here.

Going from COc1cnc2c(Sc3ccc(Nc4nnc(NCCc5ccccn5)c5ccccc45)cc3)ccnc2c1 [compound 537] to COCCNc1nnc(Nc2ccc(Sc3ccnc4cc(OC)cnc34)cc2)c2ccccc12 [compound 533], the EC50 rises from 0.002 µM to 0.062 µM (31-fold). The first is the more potent here.

First: Cc1ccc(-c2nnc(Nc3ccc(Sc4ccnc5cc(C6CC6)oc45)cc3)c3ccccc23)cc1N [compound 487]
Second: Cc1ccc(-c2nnc(Nc3ccc(Oc4ccnc5ccoc45)cc3)c3ccccc23)cc1N [compound 480]
The EC50 of the first is 19-fold lower: 0.006 µM for the first, 0.112 µM for the second. The first is the more potent here.

Going from Clc1ccc(-c2nnc(Nc3ccc(Oc4ncnc5[nH]cnc45)cc3)c3ccccc23)cc1 [compound 266] to COc1ccc2ncnc(Oc3ccc(Nc4nnc(-c5ccc(Cl)cc5)c5ccccc45)cc3)c2c1 [compound 564], the EC50 falls from over 1.2 µM to 0.043 µM.

Compared with c1ccc2c(-c3ccc4c(c3)OCO4)nnc(Nc3ccc(Sc4ccnc5ccncc45)cc3)c2c1 [compound 427], c1ccc2c(-c3ccc4c(c3)OCO4)nnc(Nc3ccc(Sc4ccnc5ccoc45)cc3)c2c1 [compound 467] is 8-fold higher in EC50: 0.002 µM for the first, 0.016 µM for the second. The first is the more potent here.

Compared with COc1cnc2c(Oc3ccc(Nc4nnc(N5CC[C@H]6CCCC[C@H]6C5)c5ccccc45)cc3)ccnc2c1 [compound 173], COc1cnc2c(Sc3ccc(Nc4nnc(N5CC[C@@H](OC)C5)c5ccccc45)cc3)ccnc2c1 [compound 540] is 2.2-fold higher in EC50: 0.006 µM for the first, 0.013 µM for the second. The first is the more potent here.

First: CCOc1nc(-c2nnc(Nc3ccc(Oc4ccnc5cc(OC)cnc45)cc3)c3ccccc23)cs1 [compound 175]
Second: COc1cnc2c(Oc3ccc(Nc4nnc(-c5ccnc(Cl)c5)c5ccccc45)cc3)ccnc2c1 [compound 283]
The EC50 of the first is 5.8-fold lower: 0.059 µM for the first, 0.343 µM for the second.

First: COc1cnc2c(Oc3ccc(Nc4nnc(-c5cnc6[nH]ccc6c5)c5ccccc45)cc3)ccnc2c1 [compound 280]
Second: COc1cnc2c(Sc3ccc(Nc4nnc(-c5ccccc5)c5ccccc45)cn3)ccnc2c1 [compound 413]
The EC50 of the first is 2-fold higher: 0.08 µM for the first, 0.041 µM for the second. The second is the more potent here.

COc1ccc2nccc(Sc3ccc(Nc4nnc(N5CCCCC5)c5ccccc45)cc3)c2n1 [compound 548] and COc1cnc2c(Sc3ccc(Nc4nnc(OCCC5CCCCN5)c5ccccc45)cc3)ccnc2c1 (stereo not drawn) [Example 403, N-(4-(7-Methoxy-1,5-naphthyridin-4-ylthio)phenyl)-4-(2-(piperidin-2-yl)ethoxy)phthalazin-1-amine] are within 1.5-fold of each other in EC50: 0.036 µM for the first, 0.037 µM for the second.

Compared with N#Cc1cc2nccc(Sc3ccc(Nc4nnc(-c5ccc6c(c5)OCO6)c5ccccc45)cc3)c2s1 [compound 457], COCCOc1ccc2c(Sc3ccc(Nc4nnc(-c5ccc(Cl)cc5)c5ccccc45)cc3)ccnc2c1 [compound 431] is 2.1-fold lower in EC50: 0.021 µM for the first, 0.01 µM for the second. The second is the more potent here.

Compared with c1ccc(-c2nnc(Nc3ccc(Oc4ncnc5nc[nH]c45)cc3)c3ccccc23)cc1 [compound 257], CCc1cc(-c2ccc(C)cc2)nnc1Nc1ccc(Nc2ccnc3cc(OC)cnc23)cc1 [compound 595] is lower in EC50: over 1.2 µM for the first, 0.083 µM for the second.

Molecule CCc1cc(-c2ccc(C)cc2)nnc1Nc1ccc(Nc2ccnc3cc(C#N)ccc23)cc1 [compound 596] has an EC50 of 0.084 µM.

Same assay, conditions: Homo sapiens, HeLa, HeLa cells, average, read-out: 24h_4NPloidy EC50_IP (uM Avg)

In order of falling EC50:
1. CCc1cc(-c2ccccc2OC)nnc1Nc1ccc(Sc2ccnc3cc(OC)cnc23)cc1 [compound 609]  0.055 µM
2. Oc1cnc2c(Oc3ccc(Nc4nnc(-c5ccc(Cl)cc5)c5ccccc45)cc3)ccnc2c1 [Example 409, 8-(4-(4-(4-Chlorophenyl)phthalazin-1-ylamino)phenoxy)-1,5-naphthyridin-3-ol]  0.032 µM
